Laboratory results from PMC3653934, “Identification of Adiponectin Receptor Agonist Utilizing a Fluorescence Polarization Based High Throughput Assay” (PLoS ONE, 2013).
Read-outs that look alike come from different tables or passages of the source.

Tests used:
AdipoR2 = target: T1, AdipoR2 (UniProt Q86V24); test: Competitive FP assay, displacement of probe 1 from AdipoR2; format: binding, human; conditions: 2 µM receptor, 100 nM probe 1, 30 min, 25°C
T1 sequence (Q86V24 1-386): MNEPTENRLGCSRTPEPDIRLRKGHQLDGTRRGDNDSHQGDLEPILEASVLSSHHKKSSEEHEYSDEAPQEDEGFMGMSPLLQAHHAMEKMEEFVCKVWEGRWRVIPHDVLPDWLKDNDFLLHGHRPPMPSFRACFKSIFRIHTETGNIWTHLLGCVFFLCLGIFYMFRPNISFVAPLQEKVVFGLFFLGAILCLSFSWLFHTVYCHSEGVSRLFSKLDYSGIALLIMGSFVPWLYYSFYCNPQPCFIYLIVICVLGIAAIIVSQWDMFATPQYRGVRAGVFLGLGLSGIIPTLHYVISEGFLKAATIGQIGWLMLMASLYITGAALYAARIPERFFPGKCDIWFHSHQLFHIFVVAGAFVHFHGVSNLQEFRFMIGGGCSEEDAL
Procedure: Unlabeled short peptide 3 was titrated against the FITC-labeled peptide and adiponectin receptor mixture. Plates were incubated at room temperature for up to 3 hours or 30 min at different temperatures. FP values were taken and IC50 values were calculated.
Master mixtures containing fluorescein-labeled probe 1 and adiponectin receptor (AdipoR1 or AdiopR2, 2 µM and probe 1 at 100 nM) in a reaction volume of 19 µl were prepared and loaded to plates. The library compounds (10 µM –0.078 µM, half dilutions) were prepared separately and transferred into the assay plates. The first and last columns of each plate were used as positive and negative control wells. Wells containing the drug only were used as controls to detect auto-fluorescence of the compounds in the total fluorescence assay. After subtraction of the background signal, data was processed and the IC50 values were determined by non-linear least square fitting using SigmaPlot 11.0.
Given that the present study is a screening study, peptide 3 was chosen as the positive control for cost-efficiency purposes.
To optimize the FP assay properly, it was necessary to assess the stability of the FP assay. The conditions for the FP assay were established by testing various parameters including incubation temperature, time, TF values, ΔmP values, and DMSO tolerance. […] In summary, the competitive FP binding assay conditions ideal for identifying adiponectin receptor agonists are: i) 2 µM adiponectin receptor, ii) 100 nM probe 1, iii) 5% final DMSO concentration (v/v), and iv) incubation for 30 min at 25°C before reading the plate.
A pilot screen against the natural product library of 10,000 compounds described above was performed at screening concentrations of 10 µM to 0.078 µM (half serial dilutions) in 5% DMSO (v/v). Controls present in each assay plate consisted of 5% DMSO (negative control) or peptide 3 (positive control).
We screened a library of 10,000 natural compounds for adiponectin agonists. […] 46 compounds that could generate IC50 curves were identified as initial hits.

[1] = test system: AMPK phosphorylation (AdipoR1 signaling) in MDA-MB-231 cells; test: Western blot of AMPK phosphorylation in MDA-MB-231 cells; format: cell-based, human; conditions: MDA-MB-231 cells treated at IC50 concentration for 6 h
Procedure: (§1) Cells were grown to 80% confluence, harvested and aliquoted into 100 mm dishes in serum free media. Cells were allowed to attach overnight and then the serum free media was removed and then cells were washed in PBS twice. Different doses of compounds were prepared in the normal media and added to different dishes for an additional 6 h. Cells were washed 3 times with ice-cold PBS and cell lysates were prepared by scraping cells into lysis buffer A (RIPA buffer, 2 mM dithiothreitol […], 1×Halt protease inhibitor cocktail (Thermo scientific), and 1×Halt phosphatase inhibitor cocktail (Thermo scientific)). The cells were allowed to swell on ice (5 min), after which the homogenate was centrifuged. The supernatants were transferred to fresh tubes and protein concentrations were determined using the Bio-Rad protein assay (Bio-Rad Laboratories, Inc.) per manufacturer’s instructions. Aliquots of the cell lysates were stored at −80°C.
(§2) Equal amounts of total protein (50 µg) were subjected to electrophoresis (10% tris-HCl, 1.0 mm gels) and transferred to nitrocellulose membranes. Membranes were blocked in TBS containing 0.05% Tween 20 (TBST) and 5% nonfat milk or 5% BSA for 1 hour at room temperature. Appropriately diluted primary antibodies were incubated in TBST/5% nonfat milk or TBST/5% BSA for 2 h at room temperature or overnight at 4 °C. Membranes were washed in TBST three times for 15 min each. Appropriately diluted secondary antibodies were incubated in superblock blocking buffers (Thermo Scientific) for 1 h at room temperature. Membranes were washed in TBST three times for 15 min. Proteins were detected by Amersham™ ECL plus western blotting detection system (GE healthcare). The following antibodies were used: anti-AdipoR1 M18, anti-AdipoR2 C12 (Santa Cruz Biotechnology, Santa Cruz, CA), anti-p-AMPKα(T172), anti-AMPKα, and anti-β-actin (Cell Signaling, Danvers, MA).
(§3) It is well established that adiponectin activates AMPK and p38 MAPK through AdipoR1 or PPARα through AdipoR2 to mediate its downstream signaling cascades, [9], [12], [14]. […] The levels of phosphorylation of AMPK and phosphorylation of PPARα were examined and the relative expression levels of the phospho-protein to the total expression of protein levels were quantified using ImageJ software (NIH) ( Fig. 3 ).
(§4) Figure 3 Effects of hit compounds on adiponectin receptor signaling pathways. […] A total 50 µg of cell lysate was loaded to each lane. Western blot was performed follow the protocol in materials and methods section.

[2] = test system: PPARα phosphorylation (AdipoR2 signaling) in MCF-7 cells; test: Western blot of PPARα phosphorylation in MCF-7 cells; format: cell-based, human; conditions: MCF-7 cells treated at IC50 concentration for 6 h
Procedure: as §1, §2, §3, §4

MDA-MB-231 cells = test: Cell viability assay (CellTiter-Blue) in MDA-MB-231 cells; format: cell-based; conditions: Homo sapiens, MDA-MB-231; 72 h, 20 µM to 1.2 nM; read-out: IC50 (µM) MDA-MB-231 cells, cell viability
Procedure: All cell lines were obtained from the American Type Culture Collection (ATCC). MCF-7 and MDA-MB-231 cells were maintained in DMEM containing 10% fetal bovine serum and supplied with 1% penicillin/streptomycin. All cells were maintained in a 5% CO2 atmosphere at 37°C.
The effects of the lead compounds on cell proliferation were tested in MCF-7 and MDA-MB-231 cells. Cells were grown to 80% confluence, harvested and aliquoted into 384-well plates in a total volume of 45 µl per well. The outer wells were inoculated with sterile water to minimize evaporation from the sample wells. Cells were allowed to attach overnight and 5 µl culture media containing either vehicles or drug were added. Cell proliferation was evaluated using CellTilter-Blue reagent (Promega, China) according to manufacturer’s instructions after 72-h incubation. Fluorescence was measured with an excitation at 530 nm and emission at 590 nm. After background subtraction, cell viability values were normalized to vehicle controls and expressed as percentage of the mean of the relative vehicle controls.
To further confirm the agonistic activity of hit compounds, MDA-MB-231 and MCF-7 cells were treated with different concentrations of g-Ad or drug (20 µM to 1.2 nM) for 72 hours and cell viability was measured. Thus, four compounds (arctiin, (-)-arctigenin, matairesinol and gramine) that show agonistic activity against adiponectin receptor 1 and four compounds (deoxyschizandrin, taxifoliol, syringing and parthenolide) that show agonistic activity against adiponectin receptor 2 were identified.

[3] = primary screen, read-out: IC50 vs AdipoR2 (µM) Primary screen
[4] = validation, read-out: IC50 vs AdipoR2 (µM) Validated

IC50 (AdipoR2; [3]) [µM]	IC50 (AdipoR2; [4]) [µM]	IC50 (MDA-MB-231 cells) [µM]	SMILES	Effect on AMPK phosphorylation [1]	Effect on PPARα phosphorylation level [2]	Effect on PPARα phosphorylation level ([2]; listed as gramine)
> 5	> 5	3.2 ± 0.3	COc1ccc(C[C@H]2COC(=O)[C@@H]2Cc2ccc(O[C@@H]3O[C@H](CO)[C@@H](O)[C@H](O)[C@H]3O)c(OC)c2)cc1OC [Compound 1, Arctiin]	elevated	inhibited	–
> 5	> 5	1.8 ± 0.6	COc1cc(C[C@H]2COC(=O)[C@@H]2Cc2ccc(O)c(OC)c2)ccc1O [Compound 3, Matairesinol]	elevated	inhibited	–
1.5	1.2 ± 0.1	> 10	C=C1C(=O)O[C@H]2[C@H]1CC/C(C)=C/CC[C@@]1(C)O[C@@H]21 [Compound 7, Parthenolide]	no effect	increased	–
3.5	3.2 ± 0.7	> 10	COc1cc2c(c(OC)c1OC)-c1c(cc(OC)c(OC)c1OC)C[C@H](C)[C@H](C)C2 [Compound 4, Deoxyschizandrin]	decreased	increased	–

SMILES	IC50 (AdipoR2; [3]) [µM]	IC50 (AdipoR2; [4]) [µM]	IC50 (MDA-MB-231 cells) [µM]	Effect on AMPK phosphorylation [1]	Effect on PPARα phosphorylation level [2]	Effect on PPARα phosphorylation level ([2]; listed as gramine)
CN(C)Cc1c[nH]c2ccccc12 [Compound 9, Gramine]	3.6	3.2 ± 0.2	9.6 ± 0.9	elevated	inhibited	decreased
